Assay results reported in PMC4869360, “An allosteric role for receptor activity-modifying proteins in defining GPCR pharmacology” (Cell Discovery, 2016).
Numbering of substitutions follows the chain as printed.

Experiments:
Format in all cases: cell-based
Conditions in all cases: Cos-7, mean±s.e.m., read-out: pEC50 mutant (converted)
[1] = biological target: T1, CT(a) receptor, H121A mutant (Homo sapiens, UniProt P30988, H121A); experiment: cAMP assay, H121A CT(a)
T1 sequence (P30988 25-474 H121A): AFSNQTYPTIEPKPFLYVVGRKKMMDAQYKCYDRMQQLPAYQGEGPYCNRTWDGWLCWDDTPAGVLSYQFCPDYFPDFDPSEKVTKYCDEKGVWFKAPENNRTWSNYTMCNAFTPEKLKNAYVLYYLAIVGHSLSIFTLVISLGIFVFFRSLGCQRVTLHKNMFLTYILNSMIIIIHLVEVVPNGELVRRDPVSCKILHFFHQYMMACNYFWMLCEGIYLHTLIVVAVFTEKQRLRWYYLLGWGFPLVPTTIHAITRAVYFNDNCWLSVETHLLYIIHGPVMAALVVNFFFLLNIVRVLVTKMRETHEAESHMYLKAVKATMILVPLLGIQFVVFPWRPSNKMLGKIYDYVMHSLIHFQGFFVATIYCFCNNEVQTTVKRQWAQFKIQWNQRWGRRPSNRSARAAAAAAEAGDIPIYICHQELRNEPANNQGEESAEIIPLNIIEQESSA
From the text: (§1) This is the insert-negative form of the receptor and is referred to as hCT(a), to comply with International Union of Pharmacology guidelines. Myc tagged RAMP1 and untagged RAMP3 constructs were used for AMY receptor experiments.
(§2) Primers were purchased from Integrated DNA Technologies Ltd (Coralville, IA, USA). Kapa HiFi readymix (Kapa Biosystems, Wilmington, MA, USA) or Primestar HS enzymes (TaKaRa Bio, Kyoto, Japan) were substituted for Pfu polymerase.
(§3) After stimulation the reaction was stopped by removing media and adding 50 μl per well of ice-cold absolute ethanol. Plates were stored at −30 °C for up to 4 days before the measurement of cAMP was performed.

[2] = biological target: T2, CT(a) receptor, F99A mutant (Homo sapiens, UniProt P30988, F99A); experiment: cAMP assay, F99A CT(a)
T2 sequence (P30988 25-474 F99A): T1 sequence (P30988 25-474 H121A) with F75A, A97H
From the text: as §1, §2, §3

[3] = biological target: T3, CT(a) receptor, W79A mutant (Homo sapiens, UniProt P30988, W79A); experiment: cAMP assay, W79A CT(a)
T3 sequence (P30988 25-474 W79A): T1 sequence (P30988 25-474 H121A) with W55A, A97H
From the text: as §1, §2, §3

[4] = biological target: T4, CT(a) receptor, W128A mutant (Homo sapiens, UniProt P30988, W128A); experiment: cAMP assay, W128A CT(a)
T4 sequence (P30988 25-474 W128A): T1 sequence (P30988 25-474 H121A) with A97H, W104A
From the text: as §1, §2, §3

[5] = biological target: T5, CT(a) receptor, Y131A mutant (Homo sapiens, UniProt P30988, Y131A); experiment: cAMP assay, Y131A CT(a)
T5 sequence (P30988 25-474 Y131A): T1 sequence (P30988 25-474 H121A) with A97H, Y107A
From the text: as §1, §2, §3

With `CC(C)C[C@H](NC(=O)CNC(=O)[C@H](C)NC(=O)[C@H](CC(C)C)NC(=O)[C@H](CCCNC(=N)N)NC(=O)[C@H](Cc1cnc[nH]1)NC(=O)[C@@H](NC(=O)[C@@H](NC(=O)[C@@H]1CSSC[C@H](NC(=O)[C@H](C)N)C(=O)N[C@@H](CC(=O)O)C(=O)N[C@@H]([C@@H](C)O)C(=O)N[C@@H](C)C(=O)N[C@@H]([C@@H](C)O)C(=O)N1)C(C)C)[C@@H](C)O)C(=O)N[C@@H](CC(C)C)C(=O)N[C@@H](CO)C(=O)N[C@@H](CCCNC(=N)N)C(=O)N[C@@H](CO)C(=O)NCC(=O)NCC(=O)N[C@H](C(=O)N[C@H](C(=O)N[C@@H](CCCCN)C(=O)N[C@@H](CC(N)=O)C(=O)N[C@@H](CC(N)=O)C(=O)N[C@@H](Cc1ccccc1)C(=O)N[C@H](C(=O)N1CCC[C@H]1C(=O)N[C@H](C(=O)N[C@@H](CC(N)=O)C(=O)N[C@H](C(=O)NCC(=O)N[C@@H](CO)C(=O)N[C@@H](CCCCN)C(=O)N[C@@H](C)C(=O)N[C@@H](Cc1ccccc1)C(N)=O)C(C)C)[C@@H](C)O)C(C)C)C(C)C)C(C)C` [hαCGRP, human αCGRP] the EC50 [1] was 263 nM, the EC50 [2] was […] and the EC50 [3] was 447 nM. For the same molecule, the EC50 [4] was 182 nM and the EC50 [5] was 309 nM.
